In USRE37516E1, “Acetamide derivative having defined particle size” (Cephalon, Inc., priority 1994, dated 2002):
“And” between values parts separate entries of the source, which are not always exact repeats. Identical values can stand only once.

Legend:
[1] = Modafinil particle size analysis, Hiac/Royco Model 9064 sizing counter; type: physicochemical; details: for MODAFINIL PARTICLE DIAMETER MEAN / MODAFINIL PARTICLE DIAMETER MEDIAN / MODAFINIL PARTICLE DIAMETER MODE: Hiac/Royco Model 9064, n = 4, +/− standard deviation; for STD DEVIATION BETWEEN MEAN, MEDIAN, MODE: derived from mean, median and mode particle diameter
Excerpt: Our particle size measurements were obtained using a Hiac/Royco Model 9064 sizing counter following manufacturer instructions (400 μm aperture; saturated water with modafinil solution; PDAS program). A summary of the results of these measurements is presented in Table 1, which includes the mean, median and mode particle sizes for six representative lots of modafinil. For comparative purposes, the standard deviation values derived from the mean, median and mode measurements are provided, as are the ratio values of median:mean:mode. Lots E-A, E-B, E-C and E-D were among the so-called early lots, and Lots L-1 and L-2 were among the so-called late lots.
Measurements obtained using instruments and techniques developed by Hiac/Royko are preferred. A Hiac/Royco sizing counter utilizes the principle of light-extinction (obscuration) for particle size detection. The principle involved is that when a particle suspended in a liquid passes through a sensor microcell where a laser beam is directed through a window at the cell, the particles in the fluid block the laser beam from a light-extinction photodiode (photodetector) resulting in a loss of light intensity. This loss of light intensity detected by the photodetector produces an electrical pulse for each particle. These pulses are proportional in amplitude to the light intensity (light extinction) which is a measure of particle size.

[2] = Plasma modafinil concentration in dogs after single oral dose of lots with different particle size; type: in vivo; details: single oral dose of 200 mg, capsule, 0 to 36 hours
Protocol: Given the disparity in results between the foreign and United States studies using what was presumed to be “identical” modafinil, additional non-human analyses were necessary prior to continuation of human clinical trials. Accordingly, animal studies in dogs were carried out to determine the in vivo pharmacokinetics of modafinil with different average particle size diameters, roughly designated as having “small” (Lot L-1) and “large” (Lots E-B and E-D) median particle sizes. Nine male dogs were randomly assigned, according to body weight to three dose groups. Each group was given a single oral dose of 200 of mg modafinil weekly for three weeks in a randomized, cross-over design, as described in Table 2.
After each weekly dose, blood samples (2 ml) were drawn from all animals by venepuncture predose (within one hour of dosing), and at 0.5, 1, 2, 3, 4, 6, 8, 10, 12, 18, 24, and 36 hours post-dose. Blood samples were collected in heparinized (lithium heparin) test tubes and centrifuged at 2,500 to 3,000 rpm. The plasma was drawn off with a glass pipette, and stored frozen (−20° C.) until analyzed. The plasma concentration of modafinil, and its acid and sulfone metabolites were simultaneously determined by high-pressure liquid chromatography, according to the method of Moachon et al. (J. Chromatag. B 654:91 (1994)).

[3] = Dissolution rate of modafinil particles in deionized water (first experiment); type: physicochemical; details: 50 mg in 500 ml deionized water, stirred, 0-60 minutes, HPLC; L-1 compared with E-D
Protocol: In the first experiment, 500 ml of deionized water was put in a 1-liter beaker and 50 mg of E-D or L-1 was added. The suspension was stirred constantly with a 5 cm Teflon-coated magnetic stir bar and a magnetic stir plate (Thermolyne model #546725). Samples of 1 ml each were taken at times 0, 1, 5, 10, 15, 20, 25, 30, 40, 50, and 60 minutes, with each sample being replaced with 1 ml of deionized water. The stir plate speed setting was “2” for the first 20 minutes, and “7” from 20 to 60 minutes Each sample was immediately filtered through a 0.45 μm filter, to remove undissolved particles. The filtered samples were assayed for modafinil, by high performance liquid chromatography, based upon the method of Moachon et al. (J. Chromatag. B 654:91 (1994)).

healthy males = experiment: First United States Phase I double-blind ascending dose clinical study; type: in vivo; details: humans, oral, 800 mg/day dose level
Excerpt: While significant testing of modafinil had already been conducted outside the United States, new drug candidates, such as modafinil, typically undergo clinical research in the United States in order to corroborate the information obtained in foreign studies. The first United States clinical evaluation of modafinil was a double-blind, ascending dose study involving oral administration of modafinil to healthy males (i.e., physically and mentally healthy male subjects 18 to 50 years of age; average body weight of −10% to +15% of normal weight for age, height, frame and sex; 2101).
The planned doses for the first United States clinical trial were 200, 400, 600, 800, 1000, 1200 and 1400 mg/day of modafinil or placebo. These dose levels were based upon the safety profile observed during the foreign clinical testing of modafinil. Subsequent doses were given only when it was determined that the previously administered dose was safe and well tolerated. For example, the safety data for the 200 mg study dose was reviewed and assessed before other volunteers received the 400 mg dose.
In this first United States Phase I clinical study, modafinil from Lot L-1 was utilized. Complete data were obtained for three of the seven modafinil dose levels intended for testing, i.e., 200, 400, and 600 mg/day. […] These symptoms resolved without treatment or sequelae following drug discontinuation. […]

[4] = Modafinil particle size measurement, Coulter Counter TA II sizing counter; type: physicochemical
Excerpt: The value ranges defined above are based upon measurements made utilizing technology and instruments developed by the Hiac/Royko Division of Pacific Scientific (11801 Tech Road, Silver Spring, Md. 20904, United States of America). As those in the art may appreciate, different instruments manufactured by different companies may provide different measurements for the same particles. For example, in a characteristic modafinil lot (Lot L-2), the mean, median, and mode particle measurements obtained using a Coulter Counter TA II sizing counter were 43, 31, and 29 microns, respectively. Using a Hiac/Royko Model 9064 sizing counter, the mean, median and mode particle measurements obtained for Lot L-2 were 18.75, 31.41 and 25.31 microns, respectively. These differences are presumably predicated upon the different approaches used in measuring particles of such diminutive sizes. Thus, the value ranges provided above are relative and are most preferably to be considered in view of utilization of instruments and operating systems manufactured by Hiac/Royko, for example, and preferably, the Hiac/Royko Model 9064 system sizing counter.
Following this assumption, we compared various parameters from lots of the bulk drug; such comparisons had not been conducted previously, given the assumption that the modafinil being tested in the United States was the “same” as that investigated outside of the United States. Particle size distribution of the bulk drug was among the parameters examined. We have performed modafinil particle size analyses with a Hiac/Royko Model 9064 sizing counter, a Coulter Counter sizing counter, by optical microscopy and by scanning electron microscopy.

normal young males = experiment: Second United States Phase I study (safety, tolerance, pharmacokinetics); type: in vivo, humans; details: oral, titrated in 200 mg/day increments, Lots L-1 or L-2
Protocol: After the discrepancy between the foreign and first United States studies was resolved and determined to be related to the differences in particle sizes, a second Phase I study was conducted in the United States, to further determine the clinical safety, tolerance and pharmacokinetic properties of modafinil having a particle size as defined. The second study involved normal young males and an experimental design similar to the first United States study (described above). In the second study, all subjects began at 200 mg/day using modafinil from Lots L-1 or L-2. Dosage was then titrated, in 200 mg/day increments, up to the target dose.

mice = details: single administration; cited from earlier work
monkeys = details: single administration; cited from earlier work
[5] = tested on: patients or healthy volunteers; details: doses tested in the foreign studies; cited from earlier work
humans = details: cited from earlier work

SMILES: NC(=O)C[S+]([O-])C(c1ccccc1)c1ccccc1 (centres unmarked) [Lot E-A, 2-(benzhydrylsulfinyl)acetamide]
- MODAFINIL PARTICLE DIAMETER MEAN ([1]; listed as E-A): 34.60 +/− 5.21 μm
- MODAFINIL PARTICLE DIAMETER MEDIAN ([1]; listed as E-A): 143.65 +/− 3.26 μm
- MODAFINIL PARTICLE DIAMETER MODE ([1]; listed as E-A): 176.48 +/− 5.32 μm
- STD DEVIATION BETWEEN MEAN, MEDIAN, MODE ([1]; listed as E-A): 74.27

SMILES: NC(=O)C[S+]([O-])C(c1ccccc1)c1ccccc1 (centres unmarked) [Lot E-B, 2-(benzhydrylsulfinyl)acetamide]
- peak plasma modafinil concentration (mean, nine dogs) ([2]; listed as E-B): 8 µg/mL
- MODAFINIL PARTICLE DIAMETER MEAN ([1]; listed as E-B): 29.99 +/− 1.09 μm
- MODAFINIL PARTICLE DIAMETER MEDIAN ([1]; listed as E-B): 89.10 μm and 89.10 +/− 4.28 μm
- MODAFINIL PARTICLE DIAMETER MODE ([1]; listed as E-B): 78.59 +/− 2.60 μm
- STD DEVIATION BETWEEN MEAN, MEDIAN, MODE ([1]; listed as E-B): 31.53

SMILES: NC(=O)C[S+]([O-])C(c1ccccc1)c1ccccc1 (centres unmarked) [Lot E-C, 2-(benzhydrylsulfinyl)acetamide]
- MODAFINIL PARTICLE DIAMETER MEAN ([1]; listed as E-C): 28.27 +/− 4.10 μm
- MODAFINIL PARTICLE DIAMETER MEDIAN ([1]; listed as E-C): 79.00 +/− 3.78 μm
- MODAFINIL PARTICLE DIAMETER MODE ([1]; listed as E-C): 101.00 +/− 40.92 μm
- STD DEVIATION BETWEEN MEAN, MEDIAN, MODE ([1]; listed as E-C): 37.30

SMILES: NC(=O)C[S+]([O-])C(c1ccccc1)c1ccccc1 (centres unmarked) [Lot E-D, 2-(benzhydrylsulfinyl)acetamide]
- peak plasma modafinil concentration (mean, nine dogs) ([2]; listed as E-D): 8 µg/mL
- MODAFINIL PARTICLE DIAMETER MEAN ([1]; listed as E-D): 22.14 +/− 0.76 μm
- MODAFINIL PARTICLE DIAMETER MEDIAN ([1]; listed as E-D): 94.05 μm and 94.05 +/− 13.75 μm
- MODAFINIL PARTICLE DIAMETER MODE ([1]; listed as E-D): 158.63 +/− 63.81 μm
- STD DEVIATION BETWEEN MEAN, MEDIAN, MODE ([1]; listed as E-D): 68.28

SMILES: NC(=O)C[S+]([O-])C(c1ccccc1)c1ccccc1 [Lot L-1, 2-(benzhydrylsulfinyl)acetamide]
- peak plasma modafinil concentration (mean, nine dogs) ([2]; listed as L-1): 10 µg/mL
- MODAFINIL PARTICLE DIAMETER MEAN ([1]; listed as L-1): 21.40 +/− 2.52 μm
- MODAFINIL PARTICLE DIAMETER MEDIAN ([1]; listed as L-1): 50.18 μm and 50.18 +/− 12.57 μm
- MODAFINIL PARTICLE DIAMETER MODE ([1]; listed as L-1): 56.56 +/− 22.39 μm
- STD DEVIATION BETWEEN MEAN, MEDIAN, MODE ([1]; listed as L-1): 18.73
- dissolution rate [3]: faster dissolution rate
- adverse events (healthy males): elevations in heart rate and blood pressure

SMILES: NC(=O)C[S+]([O-])C(c1ccccc1)c1ccccc1 [Lot L-2, 2-(benzhydrylsulfinyl)acetamide]
- MODAFINIL PARTICLE DIAMETER MEAN ([1]; listed as L-2): 18.75 +/− 1.89 μm
- MODAFINIL PARTICLE DIAMETER MEDIAN ([1]; listed as L-2): 31.41 +/− 3.57 μm
- MODAFINIL PARTICLE DIAMETER MODE ([1]; listed as L-2): 25.31 +/− 1.34 μm
- mean particle measurement ([1]; Hiac/Royko Model 9064): 18.75 microns
- median particle measurement ([1]; Hiac/Royko Model 9064): 31.41 microns
- mode particle measurement ([1]; Hiac/Royko Model 9064): 25.31 microns
- STD DEVIATION BETWEEN MEAN, MEDIAN, MODE ([1]; listed as L-2): 6.36
- mean particle measurement [4]: 43 microns
- median particle measurement [4]: 31 microns
- mode particle measurement [4]: 29 microns

SMILES: NC(=O)C[S+]([O-])C(c1ccccc1)c1ccccc1 (centres unmarked) [modafinil, 2-(benzhydrylsulfinyl)acetamide]
- maximum tolerable dose (MTD) (normal young males): 600 mg/day
- minimum intolerable dose (normal young males): 800 mg/day
- locomotor activity (mice): increased locomotor activity
- nocturnal activity (monkeys): increased nocturnal activity
- hemodynamic changes in heart rate or blood pressure [5]: No statistically or clinically significant hemodynamic changes
- treatment of idiopathic hypersomnia and narcolepsy (humans): successfully tested
